Patent US20220251039A1, “Diaryl-B-Lactam Compound and Preparation Method and Pharmaceutical Use Thereof” (Fudan University, priority 2016, published 2022)
“Also recorded” adds a separate entry of the source.

Tests used:
[1] = test system: cellular apoptosis; assay: Cell apoptosis analysis (Annexin V/PI); assay type: cell-based; settings: 48 h, Annexin-V/PI flow cytometry
Protocol: Cell apoptosis was detected using FITC Annexin V Apoptosis Detection Kit (BD Biosciences) according to manufacturer's instructions. Briefly, cells were incubated with indicated concentrations of 69, 70 and 97, CA-4 as positive control or diluent (0.2% DMSO) as negative control for 48 h. Then the cells were harvested, washed twice with PBS, and re-suspended in binding buffer. After being stained with Annexin-V and PI for 15 min in the dark place, cells were subjected to flow cytometry (Cytomics FC 500 MPL, Beckman Coulter) analysis. The results were indicated as mean values from three independent determinations.

[2] = test system: MDA-MB-231 cells; assay: Colony formation assay; assay type: cell-based, human; settings: 48 h treatment, 7-10 days growth
Protocol: 1000 MDA-MB-231 cells per well were seeded into 6-well plate at a single cell density and were cultured at 37° C. for 48 h. After being treated with indicated concentrations of 69, 70 and 97, CA-4 as positive control, or diluent (0.2% DMSO) as negative control for 48 h, the agents containing medium was replaced by fresh medium to allow cell growth for additional 7-10 days. Then the cells were fixed with methanol and stained with gentian violet for 30 min. The number of colonies which consisted of more than 50 cells were counted. The results were indicated as mean values from three independent determinations.

[3] = test system: tubulin; assay: Immunoblotting analysis of polymerized/depolymerized tubulin; assay type: cell-based, human; settings: Hela cells, 6 h
Protocol: After being treated with diluent (0.2% DMSO), tested compound, CA-4 or PTX for 6 h, Hela cells were lysed with microtubulestabilizing buffer, containing 100 mM PIPES, pH 6.8, 1 mM MgCl2, 2 mM EGTA, 0.5% NP-40, 2 M glycerol, 5 μM PTX and protease inhibitors cocktail (Roche), and the lysate was centrifuged at 15,000 rpm for 15 min. Supernatant containing depolymerized tubulin was carefully collected, whereas pellet (polymerized tubulin) was further dissolved in SDS-lysis buffer (Beyotime, China). Equal amounts of supernatant and dissolved pellet were subjected to immunoblotting analysis as described above using a tubulin antibody (Proteintech).

[4] = test system: p-histone H3, cyclin B1 and BuBR1; assay: Cell cycle associated proteins assay; assay type: cell-based, human; settings: HeLa cells, 24 h, Western blot and qPCR
Protocol: A. HeLa cells were treated with 69, 70, 97 or DMSO for 24 h. After being harvested, the cells were lysed, and the concentrations of total protein were determined by BCA protein assay kit (Beyotime, China). […] The membrane was blocked with 5% BSA in TBST for 1.5 h, then incubated overnight with specific primary antibodies (Proteintech) at 4° C. After being washed three times by TBST, the membrane was incubated with specific secondary antibodies (Abnova, Taipei, China) at room temperature for 2 h. Finally, chemiluminescent reagents (Millipore) were employed to detect the protein bands.
(§1) B. Quantitative PCR assay: HeLa cells were treated with 69, 70 or 97. The expression level of mRNA of target proteins was tested with qPCR kit (Takara).

[5] = test system: A2780 cells; assay: Xenografts tumor growth assay in nude mice; assay type: in vivo, Balb/c nude mice; settings: A2780 xenograft
Protocol: 6 weeks old female Balb/c nude mice were purchased from Shanghai Slac Laboratory Animal Co. Ltd. (Shanghai, China). 2*10^6 A2780 cells suspended in 0.2 mL PBS per mouse was injected subcutaneously into the nude mice. […] Administration of agents or vehicle, or agents and measurement of tumor volumes with a digital caliper was done once every 2 days. Tumor volumes were calculated as volume=shortest diameter (W)^2*longest diameter (L)*0.52. When the average tumor volumes of vehicle treated group reached 2000 mm^3 in diameter, the mice were sacrificed and the tumors were isolated and weighed. Visceral organs of the mice as well as solid tumors were further analyzed by H&E staining.

[6] = test system: tubulin; assay: Immunofluorescent analysis of tubulin morphology; assay type: cell-based, human; settings: SKOV-3 cells, 24 h
Protocol: After treatment with diluent (0.2% DMSO) or tested compounds at indicated concentrations for 24 h, SKOV-3 cells were fixed with methanol, permeabilized with 0.1% Triton X-100 in PBS and blocked by goat serum. Then the cells were incubated with a-tubulin antibody at 4° C. overnight, followed by incubation with Alexa 488 labeled secondary antibody (Jackson ImmunoResearch) at RT for 1 h. After being stained with DAPI, cells were examined and photographed with a Leica SP5 co-focal fluorescence microscope.

[7] = test system: KM mice; assay: Acute toxicity assay; assay type: in vivo
Protocol: KM mice were housed individually in a specific pathogen free facility. Groups of mice (n=10 per group, half male and half female) were injected intraperitoneally once with various dosages of 69 (95, 70, 50, 35, 25 mg/kg), 70 (500, 425, 350, 275, 200 mg/kg), 97 (275, 200, 150, 125 and 100 mg/kg) or vehicle (8.3% cremohorp EL and 8.3% alcohol in PBS) as negative control, respectively. 69, 70 and 97 was dissolved in cremeohore EL and alcohol mixture (1:1, v/v) and further diluted with PBS (1:5, v/v). The death of mice were monitored daily and recorded up to 14 days after injection.

[8] = test system: Bax, p53 and cleaved-PARP; assay: Expression level of apoptosis associated proteins; assay type: cell-based, human; settings: HeLa cells, Western blot and qPCR
Protocol: A. Western blotting: After being treated with candidate compound, cells were harvested and lysed. Then, the lysate was isolated by ultracentrifuge and quantified by BCA assay according to the protocol. After being denatured, equivalent protein of each sample was separated by SDS-PAGE gel and wet-transferred onto […] nitrocellulose membrane. After being blocked by PBS containing 5% skim milk, the membrane was incubated with primary antibody at 4° C. overnight and secondary antibody at room temperature for 2 h and then visualized by enhanced chemiluminescence kit (Thermo Fisher, USA), sequentially.
as §1

[9] = test system: SKOV3; assay: MTT antiproliferative assay, SKOV3; assay type: cell-based; settings: Homo sapiens, SK-OV-3, SKOV3, 48 h, read-out: In vitro cell growth inhibition IC50, SKOV3
Protocol: (§2) 5000 tumor cells per well were seeded into 96-well plate and allowed to adhere overnight. Cells were treated with various concentrations of tested compounds or DMSO (0.2%, as negative control) for 48 h. Then, the medium along with tested compounds or DMSO was discarded and […] per well MTT containing medium (0.5 mg/mL) was added. After incubation at 37° C. for 4 h, the MTT-containing medium was replaced by DMSO (150 μL per well) to dissolve the formazan crystals. Absorbance of the resulting solution was measured by microplate reader (Biotech ELx800) at 540 nm wavelength. Growth inhibition rates were calculated with the absorbance. Half maximal inhibitory concentration (IC50) of each compound was calculated using GraphPad Prism, version 6.0.

[10] = test system: Hela; assay: MTT antiproliferative assay, Hela; assay type: cell-based; settings: Homo sapiens, 48 h, read-out: In vitro cell growth inhibition IC50, Hela
Protocol: as §2

## COc1ccc([C@H]2[C@H](CO)C(=O)N2c2cc(OC)c(OC)c(OC)c2)cc1O [Compound 69, (3R,4R)-4-(3-hydroxy-4-methoxyphenyl)-3-(hydroxymethyl)-1-(3,4,5-trimethoxyphenyl)azetidin-2-one]
[1]
  cellular apoptosis: significantly promote apoptosis; also recorded: significantly induce cellular apoptosis
[2]
  colony formation: significantly inhibit the formation of colonies of cancer cells
[3]
  polymerized tubulin (immunoblotting): significantly inhibit tubulin aggregation; also recorded: dramatically reduction of polymerized tubulin
[4]
  expression of p-histone H3, cyclin B1 and BuBR1: significantly promote the expression of phosphorylated histone H3, cyclin B1, and mitotic checkpoint protein BuBR1
[5]; i.p. once every 2 days, 69 7.5 mg/kg, 70 12.5 mg/kg, 97 4 or 8 mg/kg
  tumor growth in vivo: significantly inhibit tumor growth in vivo; also recorded: anti-tumor activities in vivo
[5]; treated groups
  H&E staining of liver, kidney and spleen: no abnormal areas are observed in tissue staining of liver, kidney and spleen; also recorded: no detectable abnormalities were observed in liver, kidney and spleen
  H&E staining of tumor sections (necrosis): cause tumor tissue to produce necrotic areas; also recorded: extensive areas of necrosis or cell death
[6]
  tubulin assembly (immunofluorescence): significantly inhibit tubulin aggregation; also recorded: strongly inhibit tubulin assembly in cancer cells
[7]; 25 mg/kg i.p. once
  No. of dead mice 5-14 days: 0
  No. of dead mice 1 day: 0
  No. of dead mice 2 days: 0
  No. of dead mice 3 days: 0
  No. of dead mice 4 days: 0
  No. of dead mice Total death: 0
  Survival (%) on day 14: 100%
[7]; 35 mg/kg i.p. once
  No. of dead mice 5-14 days: 0
  No. of dead mice 1 day: 0
  No. of dead mice 2 days: 0
  No. of dead mice 3 days: 1
  No. of dead mice 4 days: 0
  No. of dead mice Total death: 1
  Survival (%) on day 14: 90%
[7]; 50 mg/kg i.p. once
  No. of dead mice 5-14 days: 0
  No. of dead mice 1 day: 0
  No. of dead mice 2 days: 0
  No. of dead mice 3 days: 1
  No. of dead mice 4 days: 0
  No. of dead mice Total death: 1
  Survival (%) on day 14: 90%
[7]; 70 mg/kg i.p. once
  No. of dead mice 5-14 days: 1
  No. of dead mice 1 day: 0
  No. of dead mice 2 days: 0
  No. of dead mice 3 days: 4
  No. of dead mice 4 days: 2
  No. of dead mice Total death: 7
  Survival (%) on day 14: 30%
[7]; 95 mg/kg i.p. once
  No. of dead mice 5-14 days: 1
  No. of dead mice 1 day: 0
  No. of dead mice 2 days: 0
  No. of dead mice 3 days: 6
  No. of dead mice 4 days: 1
  No. of dead mice Total death: 8
  Survival (%) on day 14: 20%
[8]
  expression of Bax, p53 and cleaved-PARP: significantly promote the expression of the proapoptotic protein Bax, the tumor suppressor gene p53, and the cleaved DNA repair enzyme; also recorded: significantly induce the expression of Bax, p53 and cleaved-PARP

## COc1ccc([C@H]2C(=O)C(=O)N2c2cc(OC)c(OC)c(OC)c2)cc1OCc1ccccc1 [Compound 71, (S)-4-(3-(benzyloxy)-4-methoxyphenyl)-1-(3,4,5-trimethoxyphenyl)azetidine-2,3-dione]
[9]
  IC50: > 10 µM
[10]
  IC50: > 10 µM
